According to patent US20010047027A1, “Prostaglandin D2 receptor antagonists” (priority 2000, published 2001):

Target: T1, prostanoid DP receptor (prostaglandin D receptor) (Homo sapiens, UniProt Q13258)
T1 construct: expressed in transfected cells; host or cells: HEK293(EBNA) cells; membranes, 160,000 x g fraction
T1 sequence (Q13258 1-359): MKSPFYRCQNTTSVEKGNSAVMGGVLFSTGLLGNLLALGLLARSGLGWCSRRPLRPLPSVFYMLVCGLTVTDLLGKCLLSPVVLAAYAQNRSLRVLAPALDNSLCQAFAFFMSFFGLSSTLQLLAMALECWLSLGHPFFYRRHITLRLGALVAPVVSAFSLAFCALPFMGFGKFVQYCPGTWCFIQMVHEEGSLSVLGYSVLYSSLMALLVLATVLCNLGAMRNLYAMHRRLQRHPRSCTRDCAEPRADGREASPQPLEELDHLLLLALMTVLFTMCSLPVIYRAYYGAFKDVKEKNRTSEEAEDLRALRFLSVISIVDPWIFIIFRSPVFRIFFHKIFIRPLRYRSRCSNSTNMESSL
Assay: Radioligand binding assay using membranes from cells that express recombinant prostanoid DP receptor
Settings: for affinity for the prostaglandin D2 receptor, in words: comparison of the 1R isomers with the other two diastereomers; for Ki: membranes of HEK293(EBNA) cells expressing DP, 0.7 nM [3H]PGD2, 60 min at room temperature, n = 5, read-out: Affinity (Ki) for the prostaglandin D receptor
Method: Radioligand binding assays using membranes from cells that express recombinant prostanoid DP receptor (DP).
Radioligand binding assays are conducted essentially as previously described (Abramovitz et al., Biochem. Biophys. Acta 1483-2, 285-293, 2000). HEK293(EBNA) cells expressing DP are grown in supplemented DMEM complete medium at 37° C. in a humidified atmosphere of 6% CO2 in air, and then harvested. Cells are disrupted by nitrogen cavitation at 800 psi for 30 min. on ice in the presence of protease inhibitors (2 mM phenylmethylsulfonylfluoride, 10 μM E-64, 100 μM leupeptin and 0.05 mg/mL pepstatin). Membranes are prepared by differential centrifugation (1000×g for 10 min, then 160,000×g for 30 min, all at 4° C.). The 160,000×g pellets are resuspended in 10 mM HEPES/KOH (pH 7.4) containing 1 mM EDTA at approximately 5-10 mg/mL protein by Dounce homogenization (Dounce A; 10 strokes), frozen in liquid nitrogen and stored at −80° C. DP receptor binding assays are performed in a final incubation volume of 0.2 mL in 10 mM HEPES/KOH (pH 7.4), containing 1 mM EDTA, 10 mM MnCl2, 0.7 nM [^3H]PGD2 (115-200 Ci/mmol). The reaction was initiated by addition of 30-60 μg membrane protein from the 160,000×g fraction. Test compounds are added in dimethylsulfoxide (Me2SO) at 1% (v/v) in all incubations. Non-specific binding was determined in the presence of 1-10 μM of non-radioactive PGD2. Incubations are conducted for 60 min. at room temperature. Incubations are terminated by rapid filtration at 4° C. Radioactivity bound to the individual filters is determined by scintillation counting. Maximum specific binding is defined as the total binding minus the non-specific binding. Specific binding is determined at each concentration of test compound and is expressed as a percentage of the maximum specific binding. Sigmoidal equilibrium competition curves were constructed by expressing percentage maximum specific binding as a function of ligand concentration and analyzed by a validated custom designed software employing a simplex driven non-linear least-squares curve fitting routine based on a four parameter equation to determine the inflection point concentration (InPt). The corresponding Kivalues were derived from the equation Ki=InPt/1+([radioligand]/KD).

## C[S@@+]([O-])c1cccc2c3c(n(Cc4ccc(Cl)cc4)c12)[C@@H](CC(=O)O)CCC3 [Compound Ib, 2-[(1R)-9-(4-chlorobenzyl)-8-((R)-methylsulfinyl)-2,3,4,9-tetrahydro-1H-carbazol-1-yl]acetic acid]
  affinity for the prostaglandin D2 receptor, in words: much higher affinity
  Ki: 2.1 ± 0.1 nM

## C[S+]([O-])c1cccc2c3c(n(Cc4ccc(Cl)cc4)c12)C(CC(=O)O)CCC3 (single isomer, unassigned) [Enantiomer of Ib, reference compound]
  Ki: 72 ± 4 nM

## C[S+]([O-])c1cccc2c3c(n(Cc4ccc(Cl)cc4)c12)C(CC(=O)O)CCC3 (single isomer, unassigned) [Enantiomer of Ia, reference compound]
  Ki: 119 ± 39 nM

## C[S@+]([O-])c1cccc2c3c(n(Cc4ccc(Cl)cc4)c12)[C@@H](CC(=O)O)CCC3 [Compound Ia, 2-[(1R)-9-(4-chlorobenzyl)-8-((S)-methylsulfinyl)-2,3,4,9-tetrahydro-1H-carbazol-1-yl]acetic acid]
  affinity for the prostaglandin D2 receptor, in words: much higher affinity
  Ki: 1.7 ± 0.3 nM
